Read-outs that look alike come from different tables or passages of the source.
Experiments:
HIV = settings: cited from earlier work
[1] = tested on: HIV (Human Immunodeficiency Virus); settings: cited from earlier work
[2] = Clinical Study No. 2: plasma/serum AZT by radioimmunoassay, AZT alone then AZT + p-acetamidobenzoic acid; format: in vivo, AIDS patients; settings: for Cmax: human, plasma, po, 100 mg, mean peak plasma level of AZT; for concentration: read-out: mean nadir level of AZT
Procedure: (§1) The patients were then placed on the following dosing regimen:
(§2) No other drugs that are believed to affect hepatic glucuronidation were administered.

[3] = Clinical Study 3: plasma/serum AZT by radioimmunoassay, AZT alone then AZT + inosine + INPX; format: in vivo, AIDS patients; settings: for Cmax: human, plasma, po, 100 mg, mean peak plasma level of AZT; for concentration: read-out: mean nadir level of AZT
Procedure: as §1, §2

[4] = Clinical Study 1: plasma/serum AZT by radioimmunoassay, AZT alone then AZT + inosiplex; format: in vivo, AIDS patients; settings: for Cmax: plasma, mean peak plasma level of AZT; for concentration: read-out: mean nadir level of AZT
Procedure: as §1, §2

[5] = cited from earlier work
[6] = Pharmacokinetics studies of AZT 100 mg every 6 hours before the study; format: in vivo, AIDS patients; settings: 100 mg AZT every 6 hours (400 mg total daily dose)
bone marrow = assay: Bone marrow toxicity of AZT in the study patients before the study; format: in vivo, AIDS patients; settings: 200 mg AZT orally every four hours (1,200 mg daily), and again on 800 mg daily for 2 months; 5 patients
[7] = tested on: RNA-dependent DNA-polymerase (viral reverse transcriptase); settings: in vitro incorporation into DNA growing chains, DNA chain terminated; cited from earlier work
[8] = with zidovudine, GB 2 181 128 A

## COc1cc(C(=O)OCCCN(C)CCN(C)CCCOC(=O)c2cc(OC)c(OC)c(OC)c2)cc(OC)c1OC [hexobendine]
HIV; [8]
  effect on zidovudine: synergistic effect

## Cc1cn([C@H]2C[C@H](N=[N+]=[N-])[C@@H](CO)O2)c(=O)[nH]c1=O [AZT, 3'-azido-3'-deoxythymidine]
[1]
  inhibition of in vitro replication of some retroviruses, including HIV: inhibitor of the in vitro replication of some retroviruses, including HIV
[2]; before the taking of AZT alone or of AZT and p-acetamidobenzoic acid
  serum level at time 0: 10 nM
[2]; 100 mg AZT with 1 gm p-acetamidobenzoic acid every 6 hrs, day 14, standard deviation 1.8 μM, range 0.16 to 4.7 μM
  Cmax: 2450 nM
[2]; AZT alone 100 mg oral every 6 hours, day 7, standard deviation 0.75 μM, range 0.04 to 2.46 μM
  Cmax: 1520 nM
[2]; 100 mg AZT with 1 gm p-acetamidobenzoic acid every 6 hrs, day 14, standard deviation 0.28 μM, range 0.14 to 0.88 μM
  concentration: 490 nM
[2]; AZT alone 100 mg oral every 6 hours, day 7, standard deviation 0.19 μM, range 0.04 to 0.6 μM
  concentration: 250 nM
[3]; before the taking of AZT alone or of AZT, inosine and INPX
  AZT serum level at time 0: 0.016 µM
[3]; 100 mg AZT with 1 gm inosine and 1 gm INPX every 6 hrs, day 14, standard deviation 1.3 μM, range 0.15 to 4.2 μM
  Cmax: 2760 nM
[3]; AZT alone 100 mg oral every 6 hours, day 7, standard deviation 0.70 μM, range 0.03 to 2.16 μM
  Cmax: 1410 nM
[3]; 100 mg AZT with 1 gm inosine and 1 gm INPX every 6 hrs, day 14, standard deviation 0.26 μM, range 0.11 to 0.82 μM
  concentration: 510 nM
[3]; AZT alone 100 mg oral every 6 hours, day 7, standard deviation 0.16 μM, range 0.06 to 0.8 μM
  concentration: 210 nM
[4]; before the taking of AZT alone or of AZT and INPX
  AZT serum level at time 0: 0.013 µM
[4]; human, po, 100 mg, 100 mg AZT with 1 gm INPX every 6 hrs, day 14, standard deviation 1.5 μM, range 0.14 to 4.4 μM
  Cmax: 2250 nM
[4]; human, po, 100 mg, AZT alone 100 mg oral every 6 hours, day 7, standard deviation 0.75 μM, range 0.06 to 2.52 μM
  Cmax: 1470 nM
[4]; human, serum, po, 100 mg, read-out: Serum half-life of the elimination phase (T1/2)
  half-life: 44 min
[4]; 100 mg AZT with 1 gm INPX every 6 hrs, day 14, standard deviation 0.25 μM, range 0.15 to 0.84 μM
  concentration: 460 nM
[4]; AZT alone 100 mg oral every 6 hours, day 7, standard deviation 0.19 μM, range 0.06 to 0.5 μM
  concentration: 240 nM
[5]; average
  half-life: about 1 hour
[5]; liver
  metabolic inactivation: rapidly inactivated via glucuronidation in the liver
[6]
  plasma levels: below the therapeutical threshold
Bone marrow
  bone marrow toxicity: developped bone marrow toxicity

## OCCN(CCO)c1nc(N2CCCCC2)c2nc(N(CCO)CCO)nc(N3CCCCC3)c2n1 [dipyridamole]
HIV; [8]
  effect on zidovudine: synergistic effect

## c1ccc([C@H]2CN3CCSC3=N2)cc1 [levamisole]
HIV
  effect on zidovudine: synergistic effect

## COc1ccc(Cc2nccc3cc(OC)c(OC)cc23)cc1OC [papaverine]
HIV; [8]
  effect on zidovudine: synergistic effect

## alpha-interferon
HIV; [8]
  effect on zidovudine: synergistic effect

## Cc1cn([C@H]2C[C@H](N=[N+]=[N-])[C@@H](CO[P@](=O)(O)O[P@](=O)(O)OP(=O)(O)O)O2)c(=O)[nH]c1=O [zidovudine triphosphate]
[7]
  effect on RNA-dependent DNA-polymerase (viral reverse transcriptase): incorporated into the DNA growing chains by viral reverse transcriptase, whereby DNA chain is terminated

## COc1cc(C(=O)OCCCN2CCCN(CCCOC(=O)c3cc(OC)c(OC)c(OC)c3)CC2)cc(OC)c1OC [dilazep]
HIV; [8]
  effect on zidovudine: synergistic effect

## Nc1nc2c(ncn2COCCO)c(=O)[nH]1 [acyclovir]
HIV; [8]
  effect on zidovudine: synergistic effect

## Cc1cccc(C)c1NC(=O)CN1CCN(CCCC(c2ccc(F)cc2)c2ccc(F)cc2)CC1 [lidoflazine]
HIV; [8]
  effect on zidovudine: synergistic effect

## Cc1ccc(C(=O)Nc2ccc(S(=O)(=O)O)c3cc(S(=O)(=O)O)cc(S(=O)(=O)O)c23)cc1NC(=O)c1cccc(NC(=O)Nc2cccc(C(=O)Nc3cc(C(=O)Nc4ccc(S(=O)(=O)O)c5cc(S(=O)(=O)O)cc(S(=O)(=O)O)c45)ccc3C)c2)c1 [suramine]
HIV; [8]
  effect on zidovudine: synergistic effect

## gamma-interferon: alpha-, beta, and gamma-interferons
HIV; [8]
  effect on zidovudine: synergistic effect

## O=C(O)P(=O)(O)O [foscarnet]
HIV; [8]
  effect on zidovudine: synergistic effect

## CCCN(CCC)S(=O)(=O)c1ccc(C(=O)O)cc1 [probenecid]
HIV; [8]
  effect on zidovudine: synergistic effect

## NC(=O)C1CN(CC(=O)Nc2c(Cl)cccc2Cl)CCN1CCCC(c1ccc(F)cc1)c1ccc(F)cc1 (centres unmarked) [mioflazine]
HIV; [8]
  effect on zidovudine: synergistic effect
